Results reported in patent publication US11725005B2, “Compositions and methods for inhibiting kinases” (Inhibikase Therapeutics, Inc., priority 2015, dated 2023).

How the values were obtained:
[1] = tested on: Cos 7 cells; assay: Cell cytotoxicity CC50 and Therapeutic Index (CC50:EC50); conditions: drug titration between 2 nM and 20 μM
[2] = tested on: PDGFRa

Row | SMILES | Cell cytotoxicity: no toxicity up to [1] [µM] | Percent inhibition PDGFRa [2]
1 | Cc1ccc(NC(=O)c2ccc(CN3CCN(C)CC3)cc2)cc1Nc1nccc(-c2cncc(-c3oncc3C)c2)n1 [Compound 809] | > 20 | –
2 | Cc1ccnc(-c2cncc(-c3ccnc(Nc4cc(NC(=O)c5ccc(CN6CCN(C)CC6)cc5)ccc4C)n3)c2)c1 [Compound 830] | > 20 | 100
3 | Cc1ccc(NC(=O)c2ccc(CN3CCN(C)CC3)cc2)cc1Nc1nccc(-c2cncc(-c3ccn(C)n3)c2)n1 [Compound 832] | > 20 | 100
4 | Cc1cc(-c2cncc(-c3ccnc(Nc4cc(NC(=O)c5ccc(CN6CCN(C)CC6)cc5)ccc4C)n3)c2)sn1 [Compound 8190] | > 20 | 100
5 | Cc1ccc(NC(=O)c2ccc(CN3CCN(C)CC3)cc2)cc1Nc1nccc(-c2cncc(-c3nncs3)c2)n1 [Compound 8250] | > 20 | 100
6 | Cc1ccc(NC(=O)c2ccc(CN3CCN(C)CC3)cc2)cc1Nc1nccc(-c2cncc(-c3nccs3)c2)n1 [Compound 8270] | > 20 | –
7 | Cc1cnc(-c2cncc(-c3ccnc(Nc4cc(NC(=O)c5ccc(CN6CCN(C)CC6)cc5)ccc4C)n3)c2)s1 [Compound 8280] | > 20 | 100
8 | Cc1csc(-c2cncc(-c3ccnc(Nc4cc(NC(=O)c5ccc(CN6CCN(C)CC6)cc5)ccc4C)n3)c2)n1 [Compound 8290] | – | 100
